Where a SMILES comes first, the peptide text is derived from it. Bridges are numbered along the chain shown (N, C = ends). [ ]: non-standard residue; d: D form. The star is where a group is joined. NPrPhe(4-CF3) = CCCN[C@@H](Cc1ccc(C(F)(F)F)cc1)C(=O)O; hPhe(3,4-Cl2) = N[C@@H](CCc1ccc(Cl)c(Cl)c1)C(=O)O; NMeGly(cPent) = CN[C@H](C(=O)O)C1CCCC1; NMeD = CN[C@@H](CC(=O)O)C(=O)O; NMeL = CN[C@@H](CC(C)C)C(=O)O; Morpholide = C1CN(*)CCO1; NMeA = CN[C@@H](C)C(=O)O; Ac5c = NC1(C(=O)O)CCCC1; Aze = O=C(O)[C@@H]1CCN1; Sar = CNCC(=O)O
Assays:
[1] = target: GDP-bound NRAS wild-type protein (Homo sapiens, UniProt P01111); test: Binding to NRAS by surface plasmon resonance (SPR), Single Cycle Kinetics; settings: SPR
Chain of GDP-bound NRAS wild-type protein (P01111 whole entry): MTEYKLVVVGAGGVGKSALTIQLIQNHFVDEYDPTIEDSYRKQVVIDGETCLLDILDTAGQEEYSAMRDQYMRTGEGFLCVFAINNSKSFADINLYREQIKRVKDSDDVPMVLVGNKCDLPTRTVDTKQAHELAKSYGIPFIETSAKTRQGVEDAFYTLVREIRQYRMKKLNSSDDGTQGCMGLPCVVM

[2] = target: GDP-bound HRAS wild-type protein (Homo sapiens, UniProt P01112); test: Binding to HRAS by surface plasmon resonance (SPR), Single Cycle Kinetics; settings: SPR
Chain of GDP-bound HRAS wild-type protein (P01112 whole entry): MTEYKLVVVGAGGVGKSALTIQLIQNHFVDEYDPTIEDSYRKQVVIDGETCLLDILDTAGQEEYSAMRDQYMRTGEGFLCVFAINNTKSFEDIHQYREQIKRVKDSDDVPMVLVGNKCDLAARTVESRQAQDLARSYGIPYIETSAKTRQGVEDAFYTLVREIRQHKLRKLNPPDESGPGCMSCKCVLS

[3] = GDP-bound NRAS wild-type vs GDP-bound KRAS wild-type
[4] = GDP-bound HRAS wild-type vs GDP-bound KRAS wild-type
[5] = KD ratio, GDP-bound NRAS wild-type vs GDP-bound KRAS wild-type
[6] = KD ratio, GDP-bound HRAS wild-type vs GDP-bound KRAS wild-type

Compound: CCO[C@@H]1C[C@H]2C(=O)NC3(CC(C)(C)C3)C(=O)N(C)[C@@H](C(CC)CC)C(=O)N(C)[C@H](C(=O)N(C)C)CC(=O)N(C)[C@@H](C(C)C)C(=O)N[C@@H]([C@@H](C)CC)C(=O)N(C)CC(=O)N(C)[C@H]3C/C=C\CCN(C3=O)[C@@H](Cc3ccc(C(F)(F)F)cc3)C(=O)N(C)CC(=O)N[C@@H](CCc3ccc(C(F)(F)F)c(OC)c3)C(=O)N2C1 [PP2165]
- NRAS/KRAS (ratio of KD value with respect to NRAS to KD value with respect to KRAS) [1, 3]: A (a compound having 10 or more and less than 20 is denoted as A)
- HRAS/KRAS (ratio of KD value with respect to HRAS to KD value with respect to KRAS) [2, 4]: A (a compound having 10 or more and less than 20 is denoted as A)

Compound: CC[C@H](C)[C@@H]1NC(=O)[C@H](CC)N(C)C(=O)C[C@@H](C(=O)N(C)C)N(C)C(=O)[C@H](C2CCCC2)N(C)C(=O)C2(CCC2)NC(=O)[C@@H]2CSCCN2C(=O)[C@H](CCc2cc(F)c(C(F)(F)F)c(F)c2)NC(=O)CN(C)C(=O)[C@H](Cc2ccc(C(F)(F)F)cc2)N2CC/C=C\C[C@@H](C2=O)N(C)C(=O)CN(C)C1=O [PP1137]
- NRAS/KRAS (ratio of KD value with respect to NRAS to KD value with respect to KRAS) [1, 5]: AA (a compound having 20 or more is denoted as AA)
- HRAS/KRAS (ratio of KD value with respect to HRAS to KD value with respect to KRAS) [2, 6]: A (a compound having 10 or more and less than 20 is denoted as A)

Compound: CCCN1C(=O)[C@@H]2CCN2C(=O)[C@H](C)N(C)C(=O)[C@H]([C@@H](C)CC)NC(=O)[C@H](CC(C)C)N(C)C(=O)C[C@@H](C(=O)N2CCOCC2)N(C)C(=O)[C@H](C2CCCC2)N(C)C(=O)C2(CCCC2)NC(=O)[C@@H]2CCCN2C(=O)[C@H](CCc2ccc(Cl)c(Cl)c2)NC(=O)CN(C)C(=O)[C@@H]1Cc1ccc(C(F)(F)F)cc1 [PP0227] ([NMeL]I[NMeA][Aze][NPrPhe(4-CF3)][Sar][hPhe(3,4-Cl2)]P[Ac5c][NMeGly(cPent)][NMeD]-Morpholide; lactam N-11)
- NRAS/KRAS (ratio of KD for GDP-bound NRAS wild-type to KD for KRAS) ([1]; KD ratio NRAS/KRAS): C (A compound having a KD ratio of 0.1 or more and less than 3 is denoted as C)
- HRAS/KRAS (ratio of KD for GDP-bound HRAS wild-type to KD for KRAS) ([2]; KD ratio HRAS/KRAS): B (a compound having 3 or more and less than 10 is denoted as B)

Compound: CCC[C@H]1C(=O)N[C@@H](C2CCC2)C(=O)N(C)CC(=O)N(C)[C@H]2C/C=C\CCN(C2=O)[C@@H](Cc2ccc(C)cc2)C(=O)N(C)CC(=O)N[C@@H](CCc2ccc(C(F)(F)F)c(F)c2)C(=O)N2C[C@H](OCC)C[C@H]2C(=O)NC2(CC(C)(C)C2)C(=O)N(C)[C@@H](C2CCC2)C(=O)N(C)[C@H](C(=O)N(C)C)CC(=O)N1C [PP2242]
- NRAS/KRAS (ratio of KD value with respect to NRAS to KD value with respect to KRAS) [1, 3]: A (a compound having 10 or more and less than 20 is denoted as A)
- HRAS/KRAS (ratio of KD value with respect to HRAS to KD value with respect to KRAS) [2, 4]: A (a compound having 10 or more and less than 20 is denoted as A)

Compound: CC[C@H](C)[C@@H]1NC(=O)[C@H](CC(C)C)N(C)C(=O)C[C@@H](C(=O)N2CCOCC2)N(C)C(=O)[C@H](C2CCCC2)N(C)C(=O)C2(CCCC2)NC(=O)[C@@H]2CCCN2C(=O)[C@H](CCc2ccc(C(F)(F)F)c(Cl)c2)NC(=O)CN(C)C(=O)[C@H](Cc2ccc(Cl)cc2)N2C/C=C\CC[C@@H](C2=O)N(C)C(=O)CN(C)C1=O [PP0608]
- NRAS/KRAS (ratio of KD value with respect to GDP-bound NRAS wild-type protein to KD value with respect to KRAS) ([1]; KD ratio NRAS/KRAS): C (A compound having a KD ratio of 0.1 or more and less than 3 is denoted as C)
- HRAS/KRAS (ratio of KD value with respect to GDP-bound HRAS wild-type protein to KD value with respect to KRAS) ([2]; KD ratio HRAS/KRAS): B (a compound having 3 or more and less than 10 is denoted as B)

Compound: CCO[C@@H]1C[C@H]2C(=O)NC3(CCCC3)C(=O)N(C)[C@@H](C3CCCC3)C(=O)N(C)[C@H](C(=O)N3CCOCC3)CC(=O)N(C)[C@@H](CC)C(=O)N[C@@H]([C@@H](C)CC)C(=O)N(C)CC(=O)N(C)[C@H]3CC(C)=CCN(C3=O)[C@@H](Cc3ccc(C(F)(F)F)cc3)C(=O)N(C)CC(=O)N[C@@H](CCc3cc(F)c(C(F)(F)F)c(F)c3)C(=O)N2C1 [PP1043]
- NRAS/KRAS (ratio of KD value with respect to NRAS to KD value with respect to KRAS) [1, 5]: C (A compound having a KD ratio of 0.1 or more and less than 3 is denoted as C)
- HRAS/KRAS (ratio of KD value with respect to HRAS to KD value with respect to KRAS) [2, 6]: C (A compound having a KD ratio of 0.1 or more and less than 3 is denoted as C)

Compound: CC[C@H](C)[C@@H]1NC(=O)[C@H](CC(F)(F)F)N(C)C(=O)C[C@@H](C(=O)N(C)C)N(C)C(=O)[C@H](C2CCCC2)N(C)C(=O)C2(CC(C)(C)C2)NC(=O)[C@@H]2C[C@H](C)CN2C(=O)[C@H](CCc2cc(F)c(C(F)(F)F)c(F)c2)NC(=O)CN(C)C(=O)[C@H](Cc2ccc(C(F)(F)F)cc2)N2CC/C=C\C[C@@H](C2=O)N(C)C(=O)CN(C)C1=O [PP1682]
- NRAS/KRAS (ratio of KD value for NRAS to KD value for KRAS) [1, 5]: AA (a compound having 20 or more is denoted as AA)
- HRAS/KRAS (ratio of KD value for HRAS to KD value for KRAS) [2, 6]: A (a compound having 10 or more and less than 20 is denoted as A)

From US20250230193A1, “CYCLIC COMPOUND HAVING SELECTIVE KRAS INHIBITORY EFFECT ON HRAS AND NRAS” (CHUGAI SEIYAKU KABUSHIKI KAISHA, priority 2022, published 2025)
